According to publication PMC4137556 (Biochimica et biophysica acta, 2013):
Positions of bridges follow the written chain, without caps; N, C: chain ends. Non-standard residues stand in square brackets, D forms with d. Residues, ends and D or L forms follow the SMILES beside them. pGlu = O=C1CC[C@@H](C(=O)O)N1

What was measured:
[1] = system: bacterial neuraminidases; conditions: cited from earlier work
[2] = system: mice; assay: Toxicity in mice; format: in vivo; conditions: i.p. 40 μg/g
[3] = molecular target: neuraminidase from Vibrio cholera (Vibrio cholerae serotype O1, UniProt P0C6E9); assay: Neuraminidase inhibition; format: biochemical; conditions: Vibrio cholera enzyme; up to 50 μM
[4] = system: neuraminidase from Arthrobacter ureafaciens; assay: Neuraminidase inhibition; format: biochemical; conditions: Arthrobacter ureafaciens enzyme; up to 50 μM
[5] = system: neuraminidase from Clostridium perfringens; format: biochemical
[6] = molecular target: proteinase K (Parengyodontium album, UniProt P06873); assay: Proteolytic stability against proteinase K; format: in vitro ADME; conditions: proteinase K from Tritirachium album; 50 °C, up to 48 h
[7] = system: veratridine binding site of the VGSC (neurotoxin site 2)
[8] = system: chicks; assay: Toxicity in chicks; format: in vivo; conditions: i.c.v. 60 μg/g
[9] = molecular target: voltage-gated Na+ (NaV1.2) channel (Homo sapiens, UniProt Q99250); assay: Voltage-gated Na+ channel inhibition/activation; format: cell-based; conditions: ASPA administered alone, up to micromolar concentrations
[10] = molecular target: T1, neuraminidase from Micromonospora viridifaciens (Micromonospora viridifaciens, UniProt Q02834); assay: Neuraminidase inhibition; format: biochemical; conditions: Micromonospora viridifaciens enzyme; up to 50 μM
T1 sequence (Q02834 38-647): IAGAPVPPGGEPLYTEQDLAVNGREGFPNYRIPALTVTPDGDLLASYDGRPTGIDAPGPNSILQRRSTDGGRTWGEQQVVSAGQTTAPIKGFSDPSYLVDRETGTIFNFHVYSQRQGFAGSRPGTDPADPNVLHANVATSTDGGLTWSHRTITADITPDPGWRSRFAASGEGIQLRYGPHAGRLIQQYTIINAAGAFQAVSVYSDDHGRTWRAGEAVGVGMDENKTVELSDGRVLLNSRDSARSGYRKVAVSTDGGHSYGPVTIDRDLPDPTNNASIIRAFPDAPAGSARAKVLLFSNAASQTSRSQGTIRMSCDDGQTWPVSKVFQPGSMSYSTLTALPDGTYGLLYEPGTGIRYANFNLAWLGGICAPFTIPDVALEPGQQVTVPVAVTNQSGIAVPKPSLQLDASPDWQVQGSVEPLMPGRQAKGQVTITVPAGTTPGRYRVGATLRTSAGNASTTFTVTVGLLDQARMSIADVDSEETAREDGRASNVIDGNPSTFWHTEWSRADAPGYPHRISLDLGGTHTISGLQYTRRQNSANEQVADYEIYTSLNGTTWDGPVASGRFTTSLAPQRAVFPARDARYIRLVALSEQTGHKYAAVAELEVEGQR

[11] = molecular target: T2, thermolysin (Bacillus thermoproteolyticus, UniProt P00800); assay: Proteolytic stability against thermolysin; format: in vitro ADME; conditions: thermolysin from Bacillus thermoprotelyticus rokko; 65 °C, up to 12 h
T2 sequence (P00800 233-548): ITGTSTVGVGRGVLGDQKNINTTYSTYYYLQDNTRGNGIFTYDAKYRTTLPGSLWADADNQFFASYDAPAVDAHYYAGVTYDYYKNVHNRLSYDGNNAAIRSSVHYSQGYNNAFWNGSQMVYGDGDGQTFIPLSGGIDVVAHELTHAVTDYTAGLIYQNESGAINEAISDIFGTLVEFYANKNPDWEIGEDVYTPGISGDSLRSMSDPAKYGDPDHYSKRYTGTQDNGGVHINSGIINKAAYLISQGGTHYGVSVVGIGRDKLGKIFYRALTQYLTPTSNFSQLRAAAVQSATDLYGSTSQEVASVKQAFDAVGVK

[12] = molecular target: voltage-gated Ca2+ (Cav1.2) channel (Homo sapiens, UniProt Q13936); assay: Voltage-gated Ca2+ channel inhibition/activation; format: cell-based; conditions: ASPA administered alone, up to micromolar concentrations
[13] = system: murine cerebrocortical neuron cells; assay: Effect on neuronal Ca2+ oscillations, peptide alone; format: cell-based, mouse; conditions: ASPA alone, without veratridine
[14] = system: neuraminidase from recombinant influenza A virus H1N1; assay: Neuraminidase inhibition; format: biochemical; conditions: recombinant influenza A virus H1N1 enzyme; up to 50 μM

Sequence of voltage-gated Ca2+ (Cav1.2) channel (Q13936 whole entry): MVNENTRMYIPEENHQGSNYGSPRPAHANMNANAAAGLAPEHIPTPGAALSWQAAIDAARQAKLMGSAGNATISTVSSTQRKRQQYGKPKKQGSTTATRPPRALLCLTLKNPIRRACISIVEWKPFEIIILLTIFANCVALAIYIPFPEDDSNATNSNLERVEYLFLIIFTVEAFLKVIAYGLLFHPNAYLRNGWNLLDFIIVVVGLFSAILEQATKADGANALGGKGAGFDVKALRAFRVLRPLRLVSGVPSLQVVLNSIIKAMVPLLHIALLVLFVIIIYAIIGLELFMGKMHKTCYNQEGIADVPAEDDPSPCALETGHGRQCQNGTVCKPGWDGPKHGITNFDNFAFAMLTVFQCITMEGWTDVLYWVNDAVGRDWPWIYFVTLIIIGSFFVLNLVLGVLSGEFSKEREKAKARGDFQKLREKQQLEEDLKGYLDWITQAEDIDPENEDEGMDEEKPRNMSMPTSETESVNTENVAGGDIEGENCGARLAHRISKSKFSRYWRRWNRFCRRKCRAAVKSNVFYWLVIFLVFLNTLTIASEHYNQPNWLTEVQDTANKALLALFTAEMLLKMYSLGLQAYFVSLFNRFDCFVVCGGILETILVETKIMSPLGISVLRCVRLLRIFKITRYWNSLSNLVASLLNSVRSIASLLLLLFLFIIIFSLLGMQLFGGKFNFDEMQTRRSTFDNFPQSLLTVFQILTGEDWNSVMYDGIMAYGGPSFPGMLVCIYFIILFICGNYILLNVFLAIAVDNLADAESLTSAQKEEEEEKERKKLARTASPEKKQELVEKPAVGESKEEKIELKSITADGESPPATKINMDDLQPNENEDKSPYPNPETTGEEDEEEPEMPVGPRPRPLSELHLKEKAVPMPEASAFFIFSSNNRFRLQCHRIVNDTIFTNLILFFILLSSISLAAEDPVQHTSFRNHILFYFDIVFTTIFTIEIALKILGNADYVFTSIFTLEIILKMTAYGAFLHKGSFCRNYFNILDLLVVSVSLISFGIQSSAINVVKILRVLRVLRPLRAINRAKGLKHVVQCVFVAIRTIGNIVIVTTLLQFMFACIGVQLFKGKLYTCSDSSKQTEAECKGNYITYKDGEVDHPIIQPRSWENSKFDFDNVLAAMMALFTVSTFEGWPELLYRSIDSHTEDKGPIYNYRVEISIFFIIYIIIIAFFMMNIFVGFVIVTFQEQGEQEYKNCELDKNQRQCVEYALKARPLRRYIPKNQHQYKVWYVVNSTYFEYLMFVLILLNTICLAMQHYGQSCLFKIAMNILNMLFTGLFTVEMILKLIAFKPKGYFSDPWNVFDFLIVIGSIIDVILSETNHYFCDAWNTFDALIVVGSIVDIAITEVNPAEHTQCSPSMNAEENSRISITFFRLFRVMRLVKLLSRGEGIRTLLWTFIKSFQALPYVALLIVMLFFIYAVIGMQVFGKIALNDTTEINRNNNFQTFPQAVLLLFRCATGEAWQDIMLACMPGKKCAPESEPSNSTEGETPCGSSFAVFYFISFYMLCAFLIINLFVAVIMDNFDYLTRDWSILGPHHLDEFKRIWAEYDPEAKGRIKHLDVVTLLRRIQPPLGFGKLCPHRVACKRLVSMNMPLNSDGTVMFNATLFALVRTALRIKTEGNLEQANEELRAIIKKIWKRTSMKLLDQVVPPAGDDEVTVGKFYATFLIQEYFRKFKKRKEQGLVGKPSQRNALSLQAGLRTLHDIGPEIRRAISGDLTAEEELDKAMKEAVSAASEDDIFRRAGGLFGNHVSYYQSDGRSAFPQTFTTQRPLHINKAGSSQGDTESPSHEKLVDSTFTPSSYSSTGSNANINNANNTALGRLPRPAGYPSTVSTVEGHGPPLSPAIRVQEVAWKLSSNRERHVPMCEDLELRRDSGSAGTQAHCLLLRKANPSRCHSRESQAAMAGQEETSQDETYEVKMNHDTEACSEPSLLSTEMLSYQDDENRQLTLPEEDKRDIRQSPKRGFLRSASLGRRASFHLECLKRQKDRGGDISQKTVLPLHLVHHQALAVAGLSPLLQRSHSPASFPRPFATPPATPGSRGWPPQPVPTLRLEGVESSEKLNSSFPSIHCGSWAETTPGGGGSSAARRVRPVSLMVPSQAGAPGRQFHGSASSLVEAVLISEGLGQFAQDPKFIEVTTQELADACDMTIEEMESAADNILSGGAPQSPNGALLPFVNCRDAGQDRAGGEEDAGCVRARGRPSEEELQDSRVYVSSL
Sequence of neuraminidase from Vibrio cholera (P0C6E9 25-781): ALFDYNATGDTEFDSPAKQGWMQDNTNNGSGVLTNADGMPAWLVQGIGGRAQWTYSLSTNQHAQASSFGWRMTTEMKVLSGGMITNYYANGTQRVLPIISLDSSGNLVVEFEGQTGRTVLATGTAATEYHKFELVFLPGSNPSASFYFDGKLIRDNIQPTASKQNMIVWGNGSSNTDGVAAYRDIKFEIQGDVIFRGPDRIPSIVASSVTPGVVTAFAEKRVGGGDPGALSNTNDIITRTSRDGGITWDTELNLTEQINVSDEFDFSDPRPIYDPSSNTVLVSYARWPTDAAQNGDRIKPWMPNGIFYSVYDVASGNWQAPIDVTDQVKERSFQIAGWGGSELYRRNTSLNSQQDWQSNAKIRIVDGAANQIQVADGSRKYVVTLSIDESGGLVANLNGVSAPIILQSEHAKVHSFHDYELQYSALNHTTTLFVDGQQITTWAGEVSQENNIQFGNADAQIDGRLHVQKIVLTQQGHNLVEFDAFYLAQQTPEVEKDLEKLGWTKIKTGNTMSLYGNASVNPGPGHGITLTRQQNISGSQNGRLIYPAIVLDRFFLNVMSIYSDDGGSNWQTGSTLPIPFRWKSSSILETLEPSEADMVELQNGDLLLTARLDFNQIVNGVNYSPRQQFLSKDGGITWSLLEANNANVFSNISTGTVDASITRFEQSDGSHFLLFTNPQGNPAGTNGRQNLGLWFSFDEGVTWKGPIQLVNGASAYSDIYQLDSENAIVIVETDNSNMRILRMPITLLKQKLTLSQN
Sequence of proteinase K (P06873 106-384): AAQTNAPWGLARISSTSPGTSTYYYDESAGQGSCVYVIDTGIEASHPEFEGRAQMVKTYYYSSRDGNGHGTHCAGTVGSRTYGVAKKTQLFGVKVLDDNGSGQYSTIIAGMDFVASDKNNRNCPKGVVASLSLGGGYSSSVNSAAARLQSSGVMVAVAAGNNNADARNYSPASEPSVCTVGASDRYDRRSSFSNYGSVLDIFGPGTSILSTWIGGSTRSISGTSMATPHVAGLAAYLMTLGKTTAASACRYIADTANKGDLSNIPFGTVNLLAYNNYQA

Compound: asteropine A [APA]
- Inhibition of bacterial neuraminidases [1]: potent competitive inhibitor

Compound: CC[C@H](C)[C@@H]1NC(=O)[C@@H]2CSSC[C@@H]3NC(=O)[C@H](CO)NC(=O)[C@H](CCC(=O)O)NC(=O)CNC(=O)[C@H](CCC(=O)O)NC(=O)[C@H](Cc4ccccc4)NC(=O)[C@H](C)NC(=O)[C@@H](NC(=O)CNC(=O)[C@@H]4CCC(=O)N4)CSSC[C@H](NC(=O)[C@H](CSSC[C@@H](C(=O)N[C@@H](Cc4ccc(O)cc4)C(=O)N[C@@H](Cc4ccc(O)cc4)C(=O)N[C@@H](CC(C)C)C(=O)O)NC(=O)[C@H]([C@@H](C)O)NC(=O)CNC(=O)[C@H](CC(=O)O)NC(=O)[C@@H]4CCCN4C(=O)[C@H](CC(N)=O)NC(=O)CNC(=O)[C@@H]4CCCN4C1=O)NC(=O)[C@@H]1CCCN1C(=O)[C@H](Cc1ccc(O)cc1)NC(=O)[C@H](Cc1ccccc1)NC(=O)[C@H](CCC(N)=O)NC(=O)[C@H](C(C)C)NC(=O)[C@H](CC(N)=O)NC3=O)C(=O)N1CCC[C@H]1C(=O)NCC(=O)N[C@@H](CC(C)C)C(=O)NCC(=O)N[C@@H](CC(C)C)C(=O)N[C@@H]([C@@H](C)O)C(=O)N2 [ASPA, Asteropsin A] ([pGlu]GCAFEGESCNVQFYPCCPGLGLTCIPGNPDGTCYYL-OH; disulfide 3-18, 10-25, 17-34; C-terminus assumed)
- Toxicity or behavior changes [2]: no toxicity or behavior changes were observed
- Neuraminidase inhibition [3]: no inhibition
- Neuraminidase inhibition [4]: no inhibition
- Neuraminidase inhibition [5]: no inhibition
- Proteolytic stability against proteinase K [6]: extraordinary proteolytic stability
- Allosteric interaction with the veratridine binding site of the VGSC [7]: not observed
- Toxicity or behavior changes [8]: no toxicity or behavior changes were observed
- Inhibition or activation of NaV1.2 [9]: Neither the inhibition nor the activation
- Neuraminidase inhibition [10]: no inhibition
- Proteolytic stability against thermolysin [11]: extraordinary proteolytic stability
- Inhibition or activation of Cav1.2 [12]: Neither the inhibition nor the activation
- Effect on oscillation frequency or amplitude of neuronal Ca2+ currents [13]: did not modify
- Neuraminidase inhibition [14]: no inhibition
